Source: US8198273B2, “Compounds and methods for kinase modulation, and indications therefor” (Plexxikon Inc., priority 2009, dated 2012)

Assays:
B-Raf = B-Raf (Homo sapiens, UniProt P15056); experiment: B-Raf biochemical kinase inhibition (AlphaScreen, biotin-MEK1 substrate); details: 100 μM ATP
Procedure, shortened: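 Serial 1:3 dilutions of compound (0.1 mM DMSO stock, eight points) were added first, then ATP to start the reaction at 100 μM final.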

[1] = tested on: COLO205 colon adenocarcinoma cells (B-Raf V600E); experiment: COLO205 cell growth inhibition (ATPlite); format: cell-based; details: Homo sapiens, COLO 205, 72 h; COLO205, 3 days incubation
Procedure, shortened: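 ATPlite luminescence, taken as a cell-number measure, gave IC50 values after a 3-day 37° C, 5% CO2 incubation. Compounds were tested as 8-point threefold titrations, highest final concentration 10 μM, added to cells seeded the day before.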

[2] = Relative solubility by turbidity in aqueous buffers of varying pH; format: physicochemical; details: for turbidity threshold (L, M, H) 7.4: HEPES pH 7.4; for turbidity threshold (L, M, H) 4.5: SIF pH 4.5; for turbidity threshold (L, M, H) 6.8: SIF pH 6.8; for turbidity threshold (L, M, H) 1.4: buffer pH 1.4 (SGF)
Procedure, shortened: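 Turbidity endpoint: concentration where optical density at 490, 535 and 650 nm exceeds 0.01, three-wavelength average used. Buffers at pH 1.5, 4.5, 6.8 and 7.4; DMSO serial dilutions of 25 mM stock spiked 1 μL into 99 μL buffer. Low <31.3, moderate 31.3–250, high >250 μM.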

B-Raf, sequence (P15056 whole entry): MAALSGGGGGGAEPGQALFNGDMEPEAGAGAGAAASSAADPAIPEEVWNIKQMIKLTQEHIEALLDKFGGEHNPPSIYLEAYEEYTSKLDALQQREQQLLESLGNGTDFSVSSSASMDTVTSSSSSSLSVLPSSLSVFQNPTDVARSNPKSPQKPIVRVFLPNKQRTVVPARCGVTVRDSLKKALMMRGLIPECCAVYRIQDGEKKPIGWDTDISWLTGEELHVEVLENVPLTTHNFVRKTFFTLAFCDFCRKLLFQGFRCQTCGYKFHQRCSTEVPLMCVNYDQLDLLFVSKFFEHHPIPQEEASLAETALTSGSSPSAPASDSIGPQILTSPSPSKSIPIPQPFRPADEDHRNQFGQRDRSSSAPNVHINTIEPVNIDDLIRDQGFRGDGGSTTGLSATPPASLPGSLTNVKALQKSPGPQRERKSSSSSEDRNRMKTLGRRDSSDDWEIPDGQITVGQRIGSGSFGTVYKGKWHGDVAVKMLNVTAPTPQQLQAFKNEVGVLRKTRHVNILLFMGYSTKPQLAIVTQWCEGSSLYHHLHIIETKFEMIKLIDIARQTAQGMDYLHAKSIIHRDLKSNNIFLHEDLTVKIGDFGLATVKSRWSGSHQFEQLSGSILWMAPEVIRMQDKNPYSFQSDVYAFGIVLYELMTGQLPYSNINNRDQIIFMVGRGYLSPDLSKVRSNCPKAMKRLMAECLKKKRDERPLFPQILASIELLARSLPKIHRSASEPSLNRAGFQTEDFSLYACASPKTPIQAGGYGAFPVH

Row | SMILES | IC50 (B-Raf) | IC50 [1] | turbidity threshold (L, M, H) 7.4 [2] | turbidity threshold (L, M, H) 4.5 [2] | turbidity threshold (L, M, H) 6.8 [2] | turbidity threshold (L, M, H) 1.4 [2]
1 | Cc1cnc2[nH]cc(C(=O)c3c(F)ccc(NS(=O)(=O)c4ccccc4F)c3F)c2c1 [P-2014, N-[2,4-Difluoro-3-(5-methyl-1H-pyrrolo[2,3-b]pyridine-3-carbonyl)-phenyl]-2-fluoro-benzenesulfonamide] | < 100 nM | < 5000 nM | M (moderate solubility if the threshold concentration is 31.3 μM to 250 μM) | M (moderate solubility if the threshold concentration is 31.3 μM to 250 μM) | M (moderate solubility if the threshold concentration is 31.3 μM to 250 μM) | L (low solubility if the threshold concentration is <31.3 04)
2 | CCCS(=O)(=O)Nc1ccc(F)c(C(=O)c2c[nH]c3ncc(-c4cnn(Cc5ccccc5)c4)cc23)c1F [P-2190, Propane-1-sulfonic acid {3-[5-(1-benzyl-1H-pyrazol-4-yl)-1H-pyrrolo[2,3-b]pyridine-3-carbonyl]-2,4-difluoro-phenyl}-amide] | < 10 nM | < 1000 nM | L (low solubility if the threshold concentration is <31.3 04) | L (low solubility if the threshold concentration is <31.3 04) | L (low solubility if the threshold concentration is <31.3 04) | L (low solubility if the threshold concentration is <31.3 04)
3 | CCCS(=O)(=O)Nc1ccc(F)c(C(=O)c2c[nH]c3ncc(-c4ccc(S(=O)(=O)N(C)C)cc4)cc23)c1F [P-2185, 4-{3-[2,6-Difluoro-3-(propane-1-sulfonylamino)-benzoyl]-1H-pyrrolo[2,3-b]pyridin-5-yl}-N,N-dimethyl-benzenesulfonamide] | < 10 nM | < 100 nM | L (low solubility if the threshold concentration is <31.3 04) | L (low solubility if the threshold concentration is <31.3 04) | L (low solubility if the threshold concentration is <31.3 04) | L (low solubility if the threshold concentration is <31.3 04)
4 | O=C(c1c(F)ccc(NS(=O)(=O)c2c(F)cccc2F)c1F)c1c[nH]c2ncc(Cl)cc12 [P-2003, N-[3-(5-Chloro-1H-pyrrolo[2,3-b]pyridine-3-carbonyl)-2,4-difluoro-phenyl]-2,6-difluoro-benzenesulfonamide] | < 100 nM | < 5000 nM | H (high solubility if the threshold concentration is >250 μM) | M (moderate solubility if the threshold concentration is 31.3 μM to 250 μM) | M (moderate solubility if the threshold concentration is 31.3 μM to 250 μM) | M (moderate solubility if the threshold concentration is 31.3 μM to 250 μM)
5 | Cc1cnc2[nH]cc(C(=O)c3c(F)ccc(NS(=O)(=O)c4c(F)cccc4F)c3F)c2c1 [P-2024, N-[2,4-Difluoro-3-(5-methyl-1H-pyrrolo[2,3-b]pyridine-3-carbonyl)-phenyl]-2,6-difluoro-benzenesulfonamide] | < 100 nM | < 5000 nM | M (moderate solubility if the threshold concentration is 31.3 μM to 250 μM) | L (low solubility if the threshold concentration is <31.3 04) | M (moderate solubility if the threshold concentration is 31.3 μM to 250 μM) | M (moderate solubility if the threshold concentration is 31.3 μM to 250 μM)
